In patent US9676818B2, “Toll-like receptor 2-agonistic lipopeptides, and method of making the same” (University of Kansas, priority 2013, dated 2017):
pEC50: −log10 of the molar value. Like-named read-outs stand apart in the source and are kept apart here.

Assays:
human TLR2 = human TLR2 (Homo sapiens (Human), UniProt O60603); assay: human TLR2-specific NF-κB reporter gene assay (HEK-Blue cells); assay type: cell-based; conditions: for EC50: human TLR2-specific reporter gene assay, ND = no activity detected at 10 μM, read-out: TLR2-Agonistic Activity (EC50 in nM)
Text: The induction of NF-κB in a TLR2-specific reporter gene assay was quantified using HEK-BLUE™ cells as previously described (Wu, W. et al., J. Med. Chem. 2010, 53, 3198-3213). HEK293 cells stably transfected with either human TLR2 or murine TLR2 and alkaline phosphatase (sAP) were obtained from InvivoGen (San Diego, Calif.), and were maintained in HEK-BLUE™ Selection medium containing zeocin and normocin. Stable expression of secreted alkaline phosphatase (sAP) under control of NF-κB promoters is inducible by TLR2 agonists, and extracellular sAP in the supernatant is proportional to NF-κB induction. HEK-Blue cells were incubated at a density of ˜10^5 cells/mL in a volume of 80 μL/well, in 384-well, flat-bottomed, cell culture-treated microtiter plates until confluency was achieved, and then stimulated with serially-diluted aliquots of compounds for 12 h. sAP was assayed spectrophoto-metrically using an alkaline phosphatase-specific chromogen (present in the HEK-detection medium as supplied by the vendor) at 620 nm. For antagonism assays, HEK-Blue cells were incubated at a density of ˜10^5 cells/mL in a volume of 80 μL/well and stimulated with either PAM2CS (1 μg/mL) or lipoteichoic acid (1 μg/mL) in the presence of graded concentrations of the test compounds as described for TLR7 previously (Shukla, N. M.; et al., Bioorg. Med. Chem. Lett. 2009, 19, 2211-2214; Shukla, N. M. et al., Bioorg. Med. Chem. 2011, 19, 3801-3811).

Aqueous solubility = assay type: physicochemical

human TLR2, sequence (O60603 21-784): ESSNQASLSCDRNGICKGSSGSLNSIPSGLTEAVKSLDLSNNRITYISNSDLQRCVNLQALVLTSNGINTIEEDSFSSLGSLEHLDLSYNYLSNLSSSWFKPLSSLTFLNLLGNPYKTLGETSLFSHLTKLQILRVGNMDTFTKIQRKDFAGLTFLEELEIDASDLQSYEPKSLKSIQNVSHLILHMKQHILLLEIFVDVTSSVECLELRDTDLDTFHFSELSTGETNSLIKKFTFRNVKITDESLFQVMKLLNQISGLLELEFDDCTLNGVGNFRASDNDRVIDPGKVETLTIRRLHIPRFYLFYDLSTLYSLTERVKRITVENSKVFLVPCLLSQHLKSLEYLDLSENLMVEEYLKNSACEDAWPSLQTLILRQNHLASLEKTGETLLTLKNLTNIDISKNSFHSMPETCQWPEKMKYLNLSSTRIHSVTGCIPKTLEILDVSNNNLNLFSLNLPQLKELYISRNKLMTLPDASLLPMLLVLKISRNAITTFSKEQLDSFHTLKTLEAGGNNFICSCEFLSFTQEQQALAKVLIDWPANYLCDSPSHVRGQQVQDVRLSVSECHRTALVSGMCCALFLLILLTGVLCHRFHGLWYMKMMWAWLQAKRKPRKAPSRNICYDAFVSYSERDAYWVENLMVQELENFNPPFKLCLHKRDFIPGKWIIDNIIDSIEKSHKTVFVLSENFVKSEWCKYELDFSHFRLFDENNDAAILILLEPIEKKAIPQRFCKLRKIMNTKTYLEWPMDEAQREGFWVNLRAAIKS

Row | Structure (SMILES) | EC50 (human TLR2) [nM] | also measured
1 | CCCCCCCCCCCCCCCC(=O)OCCSC[C@H](NC(=O)C(F)(F)F)C(=O)N[C@@H](CO)C(=O)OC [Compound 11h, 2-(((R)-3-(((S)-3-hydroxy-1-methoxy-1-oxopropan-2-yl)amino)-3-oxo-2-(2,2,2-trifluoro-acetamido)propyl)thio)ethyl palmitate] |  | absolute magnitude of TLR2-induced NF-κB activation (human TLR2; hTLR2, FIG. 1): low magnitude; pEC50 (human TLR2; hTLR2 reporter gene assay, read-out: EC50 in engaging hTLR2): 8.35
2 | CCCCCCCCCCCCCCCC(=O)OCCSC[C@H](N)C(=O)N[C@@H](COC(C)=O)C(=O)OC [Compound 14a, 2-(((R)-3-(((S)-3-acetoxy-1-methoxy-1-oxopropan-2-yl)amino)-2-amino-3-oxopropyl)thio)ethyl palmitate] | 2.97 | hTLR2-agonistic activity in words (human TLR2; hTLR2 reporter gene assay): virtually indistinguishable from that of 6d
3 | CCCCCCCCCCCCCCCC(=O)OCCCSC[C@H](N)C(=O)N[C@@H](CO)C(=O)OC [Compound 15, 3-((R)-2-amino-3-((S)-3-hydroxy-1-methoxy-1-oxopropan-2-ylamino)-3-oxopropylthio)propyl palmitate] | > 10000 | hTLR2-agonistic activity in words (human TLR2; hTLR2 reporter gene assay): inactive
4 | CCCCCCCCCCCCCCCC(=O)OCCCSC[C@H](NC(C)=O)C(=O)N[C@@H](CO)C(=O)OC [Compound 16, 3-(((R)-2-acetamido-3-(((S)-3-hydroxy-1-methoxy-1-oxopropan-2-yl)amino)-3-oxopropyl)thio)propyl palmitate] | 5.52 | hTLR2-agonistic activity in words (human TLR2; hTLR2 reporter gene assay): active, albeit much weaker in potency than 11d
5 | CCCCCCCCCCCCCCCC(=O)OCCSC[C@H](NC(C)=O)C(=O)N[C@@H](COS(=O)(=O)O)C(=O)OC [Compound 26, 2-(((R)-2-Acetamido-3-(((S)-1-methoxy-1-oxo-3-(sulfooxy)propan-2-yl)amino)-3-oxopropyl)thio)ethyl palmitate] | 7.1 | water solubility (Aqueous solubility): exceptionally water soluble
6 | CCCCCCCCCCCCCCCC(=O)OCCSC[C@H](NC(C)=O)C(=O)N[C@@H](COC(=O)CCC(=O)O)C(=O)OC [Compound 27, (7S,10R)-10-Acetamido-7-(methoxycarbonyl)-4,9,16-trioxo-5,15-dioxa-12-thia-8-azahentriacontan-1-oic acid] | 0.518 | water solubility (Aqueous solubility): exceptionally water soluble
7 | CCCCCCCCCCCCCCCC(=O)OCCSC[C@H](NC(C)=O)C(=O)N[C@@H](COC(=O)c1cccnc1)C(=O)OC [Compound 28, (S)-2-((R)-2-Acetamido-3-((2-(palmitoyloxy)ethyl)thio)propanamido)-3-methoxy-3-oxopropyl nicotinate] | 1.27 | 
8 | CCCCCCCCCCCCCCCC(=O)NCCSC[C@H](NC(C)=O)C(=O)N[C@@H](CO)C(=O)OC [Compound 34, (S)-Methyl 2-((R)-2-acetamido-3-((2-palmitamidoethyl)thio)propanamido)-3-hydroxypropanoate] | 11.8 | 
9 | CCCCCCCCCCCCCCCCn1cc(CCSC[C@H](NC(C)=O)C(=O)N[C@@H](CO)C(=O)OC)nn1 [Compound 38, (S)-Methyl 2-((R)-2-acetamido-3-((2-(1-hexadecyl-1H-1,2,3-triazol-4-yl)ethyl)thio)propanamido)-3-hydroxypropanoate] | 641 | 
10 | CCCCCCCCCCCCCc1cn(CCSC[C@H](NC(C)=O)C(=O)N[C@@H](CO)C(=O)OC)nn1 [Compound 41, (S)-Methyl 2-((R)-2-acetamido-3-((2-(4-tridecyl-1H-1,2,3-triazol-1-yl)ethyl)thio)propanamido)-3-hydroxypropanoate] | 260 | 
11 | CCCCCCCCCCCCCCCCNC(=O)OCCSC[C@H](NC(C)=O)C(=O)N[C@@H](CO)C(=O)OC [Compound 45, (2S,5R)-Methyl 5-acetamido-2-(hydroxymethyl)-4,11-dioxo-10-oxa-7-thia-3,12-diazaoctacosan-1-oate] | 0.323 | 
12 | CCCCCCCCCCCCCCCCOC(=O)NCCSC[C@H](NC(C)=O)C(=O)N[C@@H](CO)C(=O)OC [Compound 48, (2S,5R)-Methyl 5-acetamido-2-(hydroxymethyl)-4,11-dioxo-12-oxa-7-thia-3,10-diazaoctacosan-1-oate] | 0.0615 | 
13 | CCCCCCCCCCC[C@@H](O)CC(=O)OCCSC[C@H](NC(C)=O)C(=O)N[C@@H](CO)C(=O)OC [Compound 65] | 1.13 | 
14 | CCCCCCCCCCC[C@H](CC(=O)OCCSC[C@H](NC(C)=O)C(=O)N[C@@H](CO)C(=O)OC)OC=O [Compound 66] | 0.808 | 
15 | CCCCCCCCCCC[C@H](CC(=O)OCCSC[C@H](NC(C)=O)C(=O)N[C@@H](CO)C(=O)OC)OC(C)=O [Compound 82] | 0.182 | 
16 | CCCCCCCCCCC[C@H](CC(=O)OCCSC[C@H](NC(C)=O)C(=O)N[C@@H](CO)C(=O)OC)OC(=O)CCC [Compound 83] | 0.345 | 
17 | CCCCCCCCCCC[C@H](CC(=O)OCCSC[C@H](NC(C)=O)C(=O)N[C@@H](CO)C(=O)OC)OC(=O)CCCCC [Compound 84] | 1.5 | 
18 | CCCCCCCCCCC[C@H](CC(=O)OCCSC[C@H](NC(C)=O)C(=O)N[C@@H](CO)C(=O)OC)OC(=O)CCCCCCC [Compound 85] | 3.08 | 
19 | CCCCCCCCCCC[C@H](CC(=O)OCCSC[C@H](NC(C)=O)C(=O)N[C@@H](CO)C(=O)OC)OC(=O)CCCCCCCCC [Compound 86] | 12.9 | 
20 | CCCCCCCCCCCC(=O)O[C@H](CCCCCCCCCCC)CC(=O)OCCSC[C@H](NC(C)=O)C(=O)N[C@@H](CO)C(=O)OC [Compound 87] | 20.7 | 
21 | CCCCCCCCCCCCCC(=O)O[C@H](CCCCCCCCCCC)CC(=O)OCCSC[C@H](NC(C)=O)C(=O)N[C@@H](CO)C(=O)OC [Compound 88] | 9.52 | 
22 | CCCCCCCCCCCCCCCC(=O)O[C@H](CCCCCCCCCCC)CC(=O)OCCSC[C@H](NC(C)=O)C(=O)N[C@@H](CO)C(=O)OC [Compound 89] | 4.78 | 

Further lines, with some results ahead:

Row | EC50 (human TLR2) [nM] | Structure (SMILES) | also measured
23 | 1.64 | CCCCCCCCCCCCCCCC(=O)OCCSC[C@H](NC(=O)CCC)C(=O)N[C@@H](CO)C(=O)OC [Compound 11e, 2-(((R)-2-butyramido-3-(((S)-3-hydroxy-1-methoxy-1-oxopropan-2-yl)amino)-3-oxopropyl)thio)ethyl palmitate] | 
24 | 3.8 | CCCCCCCCCCCCCCCC(=O)OCCSC[C@H](NC(=O)CCCCCCC)C(=O)N[C@@H](CO)C(=O)OC [Compound 11f, 2-(((R)-3-(((S)-3-hydroxy-1-methoxy-1-oxopropan-2-yl)amino)-2-octanamido-3-oxopropyl)thio)ethyl palmitate] | 
25 | > 10000 | CCCCCCCCCCCCCCCC(=O)N[C@@H](CSCCOC(=O)CCCCCCCCCCCCCCC)C(=O)N[C@@H](CO)C(=O)OC [Compound 11g, 2-(((R)-3-(((S)-3-hydroxy-1-methoxy-1-oxopropan-2-yl)amino)-3-oxo-2-palmitamidopropyl)thio)ethyl palmitate] | hTLR2-agonistic activity in words (human TLR2; hTLR2 reporter gene assay): complete loss of activity
26 | > 10000 | CCCCCCCCCCCCCCCC(=O)OCCSC[C@H](NC(=O)C(Cl)(Cl)Cl)C(=O)N[C@@H](CO)C(=O)OC [Compound 11i, 2-(((R)-3-(((S)-3-hydroxy-1-methoxy-1-oxopropan-2-yl)amino)-3-oxo-2-(2,2,2-trichloroacetamido)propyl)thio)ethyl palmitate] | hTLR2-agonistic activity in words (human TLR2; hTLR2 reporter gene assay): inactive
27 | > 10000 | CCCCCCCCCCCCCCCC(=O)OCCSC[C@H](NS(C)(=O)=O)C(=O)N[C@@H](CO)C(=O)OC [Compound 11j, 2-(((R)-3-(((S)-3-hydroxy-1-methoxy-1-oxopropan-2-yl)amino)-2-(methylsulfonamido)-3-oxo-propyl)thio)ethyl palmitate] | hTLR2-agonistic activity in words (human TLR2; hTLR2 reporter gene assay): inactive
28 | > 10000 | CCCCCCCCCCCCCCCC(=O)OCCSC[C@H](NS(=O)(=O)C(F)(F)F)C(=O)N[C@@H](CO)C(=O)OC [Compound 11k, 2-(((R)-3-(((S)-3-hydroxy-1-methoxy-1-oxopropan-2-yl)amino)-3-oxo-2-(trifluoromethyl-sulfonamido)propyl)thio)ethyl palmitate] | hTLR2-agonistic activity in words (human TLR2; hTLR2 reporter gene assay): inactive
29 | > 10000 | CCCCCCCCCCCCCCCC(=O)OCCSC[C@H](NS(=O)(=O)c1ccc(C)cc1)C(=O)N[C@@H](CO)C(=O)OC [Compound 11l, 2-(((R)-3-(((S)-3-hydroxy-1-methoxy-1-oxopropan-2-yl)amino)-2-(4-methylphenylsulfonamido)-3-oxopropyl)thio)ethyl palmitate] | hTLR2-agonistic activity in words (human TLR2; hTLR2 reporter gene assay): inactive
30 | 5.47 | CCCCCCCCCCCCCCCC(=O)OCCSC[C@H](N)C(=O)N[C@@H](COC(=O)CCC)C(=O)OC [Compound 14b, 2-(((R)-2-amino-3-(((S)-3-(butyryloxy)-1-methoxy-1-oxopropan-2-yl)amino)-3-oxopropyl)thio)ethyl palmitate] | 
31 | 5.95 | CCCCCCCCCCCCCCCC(=O)OCCSC[C@H](N)C(=O)N[C@@H](COC(=O)CCCCCCCCCCCCCCC)C(=O)OC [Compound 14c, 2-(((R)-2-amino-3-(((S)-1-methoxy-1-oxo-3-(palmitoyloxy)propan-2-yl)amino)-3-oxopropyl)thio)ethyl palmitate] | 
